The record followed here is patent publication US20140274883A1, “NOVEL ANTIVIRAL COMPOUNDS FROM MARINE EXTRACTS” (priority 2008, published 2014).

The test relates to influenza A/Wyoming/03/2003 (H3N2). Description: Plaque reduction assay in MDCK cell monolayers. The note with it: 5 μg/mL drug control, 72 h. The format is cell-based, influenza virus.

In the case of `NC(=O)c1ncn([C@@H]2O[C@H](CO)[C@@H](O)[C@H]2O)n1` [Ribavirin, ribavirin], the plaque formation result was “completely inhibits the formation of plaques”.
